Experimental data taken from publication PMC8470881, “Membrane Interactions of Latarcins: Antimicrobial Peptides from Spider Venom” (International Journal of Molecular Sciences, 2021).
No end group written: not given here.

Key:
[1] = test system: Bacillus subtilis subsp. spizizenii (DSM 347), Staphylococcus xylosus (DSM 20267), Escherichia coli (DSM 1116), Acinetobacter sp. (DSM 586); details: for MIC: irrespective of the bacterial strain (all four strains), Müller-Hinton medium, 20 h at 37 °C, maximum tested 256 µg/mL
Protocol: The effect of latarcins against four types of bacteria was determined using a minimum inhibitory concentration (MIC) assay on two Gram-positive strains (Bacillus subtilis subsp. spizizenii and Staphylococcus xylosus) and two Gram-negative strains (Escherichia coli and Acinetobacter sp.). Although the antimicrobial activity of latarcins is well documented, these experiments served to ensure that all studies were performed on molecules that show the expected antimicrobial activity.
The minimum inhibitory concentration (MIC) was determined as previously reported. For each latarcin, MIC was determined against two Gram-positive strains, namely Bacillus subtilis subsp. spizizenii (DSM 347) and Staphylococcus xylosus (DSM 20267), and two Gram-negative strains: Escherichia coli (DSM 1116) and Acinetobacter sp. (DSM 586). Bacterial cultures were grown in Müller-Hinton medium (MHM) as described previously, and peptides were dissolved in sterile water containing 10% DMSO. The stock solution of peptides with 1024 µg/mL was prepared such that serial dilutions of peptides (from 256 µg/mL to 2 µg/mL) in MHM were prepared in 96-well plates with the penultimate column without peptide to act as positive control (no peptide) and the final column as negative control (no bacteria). Bacterial stock suspension was made with an OD of 0.2 units at 550 nm. This stock solution was further diluted (1:1000 for Gram-negative bacteria and 1:100 for Gram-positive bacteria), and subsequently, 50 µL of the resulting bacterial suspension was added to the wells except the final well to give a final concentration of 10^6 colony-forming units per mL. Afterwards, the 96-well plates were incubated at 37 °C for 20 h, and cellular respiration was detected by adding 20 µL of resazurin solution (200 µg/mL) for an additional 2 h at the same temperature.

human red blood cells = assay: Hemolysis assay; details: peptide concentration 128 µg/mL, 30 min, 37 °C
Protocol: A hemolysis assay was performed to determine the activity of latarcins against human red blood cells, allowing us to compare the results to those of previous experiments in which rabbit erythrocytes were used. The activity was determined for each latarcin as a function of increasing concentration, up to a maximum of 256 µg of peptides per mL. […] The percentage hemolysis of the other peptides was determined at the highest tested concentration of 256 µg/mL.
The influence of latarcins on human erythrocytes was determined by using a hemolysis assay modified from previously published methods. Blood was obtained from the blood bank of the local hospital in Karlsruhe and stabilized with citrate phosphate dextrose buffer. Erythrocyte suspension (5 mL) was taken up in Tris buffer (45 mL, 172 mM, pH 7.6) at room temperature, gently mixed, and centrifuged (1500 rpm, 10 min). The supernatant solution was removed, and Tris wash was repeated twice with 45 mL as above. The washed erythrocytes (1 mL) were suspended in 9 mL Tris buffer to make the stock cell suspension, which was then further diluted to 0.25% (v/v) at 37 °C before use. Peptide stock solutions were prepared with 1024 µg/mL in Tris buffer containing 10% DMSO, and serial dilutions were prepared in the range of 512 µg/mL to 2 µg/mL as described previously. For the positive control, Triton X-100 (200 µL of 0.2% v/v) was used, and as the negative control, Tris buffer (200 µL, 172 mM) was used. Erythrocyte stock cell suspension (200 µL) was added to each of the samples and incubated for 30 min at 37 °C with gentle shaking before determining the percentage of hemolysis as described previously.

[2] = Circular dichroism spectroscopy (secondary structure); format: physicochemical; details: CD in DMPC/DMPG (7/3) SUVs, P/L = 1:50, 10 mM phosphate buffer pH 7.0, 30 °C, peptide 29.3 μM; deconvolution with CDSSTR, CONTIN-LL, SELCON-3
Description: Next, we compared the secondary structure of the full set of latarcins in the presence of lipid membranes, for which there are no complete data available yet.
The CD line shapes (Figure 2) were deconvoluted to estimate the secondary structure contributions (Supplementary Table S1) using the CDSSTR, CONTIN-LL, and SELCON-3 algorithms provided on the DICHROWEB online server as described previously. […] In peptides containing a high proportion of aromatic residues, such shifts of the long-wavelength band are well documented.
Small unilamellar vesicles (SUVs) for the CD measurements were prepared as follows. Weighed amounts of the lipid powders (DMPC, DMPG) were dissolved in chloroform/methanol 1/1 (v/v) to obtain 5 mg/mL stock solutions. For obtaining mixed DMPC/DMPG liposomes (7/3 molar ratio), the appropriate aliquots of these stock solutions were pipetted in a glass vial and thoroughly vortexed. The organic solvents were removed under a gentle stream of nitrogen gas, followed by 3 h of vacuum pumping in an exsiccator at a reduced pressure of 3-4 mbars to remove solvent residuals from the lipid film that had formed in the vial. The lipid film was dispersed by the addition of 10 mM phosphate buffer (PB) pH 7.0 and homogenized by vigorously vortexing for 10 × 1 min and 10 freeze–thaw cycles. SUVs were formed by sonication of the obtained multilamellar vesicles for 16 min in a strong ultrasonic bath (UTR 200, Hielscher, Germany). The temperature of the water in the ultrasonic bath was adjusted to 35 °C by circulating it through a thermostat to avoid overheating the samples. A weighed amount of the corresponding peptide was dissolved in water resulting in stock solutions with a peptide concentration of 0.5 mg/mL. For the final CD samples, each peptide stock solution was diluted to 29.3 μM and the corresponding lipid dispersion to 1.47 mM in 10 mM PB, resulting in a peptide-to-lipid (P/L) ratio of 1/50.
[…] The samples were measured in a 1-millimeter path length quartz glass cell (Suprasil, Hellma Müllheim, Germany) between 260 and 185 nm at 0.5 nm intervals. Spectra of the liposome samples were recorded at 30 °C, i.e., well above the phase transition temperature of the lipids, using a water-thermostated rectangular cell holder. Three repeat scans at a scan rate of 10 nm min^−1, 8 s response time, and 1 nm bandwidth were averaged for each sample, and the baseline spectrum of the respective peptide-free sample was subtracted from the sample spectrum. CD spectra were smoothened by a Savitzky-Golay filter (convolution width of 15 data points), which is implemented in the Jasco Spectra Analysis software.

[3] = Oriented circular dichroism (helix alignment in membrane); format: physicochemical; details: DMPC/DMPG (7/3), P/L = 1:100, oriented hydrated bilayers, 30 °C
Description: This is the same lipid composition and peptide-to-lipid ratio as was used in conventional CD above (see Figure 2), but in contrast to the vesicular samples containing excess water, the oriented membranes for OCD are just about saturated with water.
The sign and intensity of the 208 nm band provide a characteristic signature of the helix tilt angle in the membrane [19]. For a helical peptide that lies flat on the bilayer surface, this band is the most intense.
To prepare oriented CD (OCD) samples, latarcins depending on their solubility were dissolved either in pure MeOH or CHCl3/MeOH 1/1 (v/v) and thoroughly mixed with appropriate aliquots of DMPC/DMPG solutions (7/3 molar ratio) in the same solvent. Each co-dissolved mixture with a peptide-to-lipid molar ratio of 1/100 was deposited on a quartz glass plate using a gas-tight syringe. To achieve a spot size of 12.5 mm on the 20 mm diameter plates (Suprasil QS, Hellma Optik GmbH, Jena, Germany), a volume of ~55–60 µL was used. The organic solvents were evaporated in a gentle stream of air until the sample appeared dry. The amounts of deposited lipid and peptide on the plate were always 0.29 μmole and 2.9 nmole, respectively. The peptide-lipid-film was further dried under reduced pressure for at least 3 h. Afterwards, each plate with the dried sample was fixed and sealed by a polymer O-ring in a cylindrical sample holder. The plate with the sample and a second window plate without the sample formed a compartment for controlled hydration. The holder was assembled in a custom-built hydration cell. In the inner compartment of the sample holder, the peptide-lipid film was hydrated for about 15 h at 30 °C and 97% relative humidity via the gas phase by a saturated K2SO4 solution contained in an adjacent cavity of the hydration cell. During hydration, the lipids spontaneously align as lipid bilayers that are macroscopically oriented perpendicular to the glass surface. For the measurement, the holder was transferred to an OCD sample cell that had been developed and built in-house [20]. It is computer-controlled and can be integrated into a Jasco spectropolarimeter as an accessory. The optical path runs along the cylindrical axis of the cell, i.e., normal to the quartz glass plate surface carrying the oriented lipid film. To reduce possible spectral artifacts caused by linear dichroism (LD) or linear birefringence (LB) due to imperfections in the sample, strain in the quartz glass or imperfect alignment of the windows, the OCD spectra were recorded in steps of 45° by rotation of the cell around the beam axis [19, 20]. At each angle, two scans were recorded from 260–185 nm as an average, using a scan rate of 20 nm min^−1, 4 s response time, and 1 nm bandwidth.

[4] = Solid-state 15N-NMR (helix alignment in membrane); format: physicochemical; details: DMPC/DMPG (7/3), P/L = 1:100, oriented samples, solid-state 15N-NMR, 308 K
Protocol: While OCD provides a rough picture of the peptide alignment, the helix tilt angle can be measured rather precisely by solid-state NMR using the same type of oriented membrane sample. […] If the peptides are not helical, then the orientation cannot be determined from these ^15N-NMR spectra (which is why CD/OCD need to be performed first), but other information may be available. Oriented NMR samples were prepared at a P/L of 1/100 in DMPC/DMPG (7/3), as for CD/OCD. The ^15N-NMR spectra of all latarcins are summarized in Figure 7, along with the corresponding ^31P-NMR spectra of the phospholipid component. […] This conclusion is supported by the vesicle leakage data above.
Ltc2a, with a chemical shift of 131 ppm, on the other hand, is distinctly tilted in the membrane, as was also observed in the OCD experiments. […] Ltc3a, with a chemical shift of 93 ppm, is tilted only slightly by 10–20°. […] Given that OCD had shown distinct signs of aggregation into β-sheets, we can conclude that Ltc6a binds to the membrane and perturbs the lipid bilayer, but it is not possible to determine the molecular alignment of Ltc6a when it has most likely formed aggregates.
Macroscopically oriented NMR samples were prepared by co-dissolving appropriate amounts of peptides and lipids (in 300 μL methanol, 100 μL CHCl3, and 10–20 μL Milli-Q water) and spreading them onto 23 thin glass plates of dimensions 9 mm × 7.5 mm × 0.08 mm (Marienfeld Laboratory Glassware, Lauda-Königshofen, Germany). The peptide-to-lipid ratio (P/L) is given in mol/mol. The plates were dried in air for 1 h, followed by drying under vacuum overnight. The plates were stacked and placed into a hydration chamber with 96% relative humidity at 48 °C for 18–24 h before wrapping the stack in parafilm and plastic foil for the NMR measurements. All solid-state NMR measurements were carried out on a Bruker Avance 500 MHz spectrometer (Bruker Biospin, Karlsruhe, Germany) at 308 K, as previously reported. The oriented membrane samples were placed in the flat-coil probe such that the lipid bilayer normal was aligned parallel to the magnetic field. ^31P-NMR was used to check the quality of the lipid orientation in the samples, using a Hahn echo sequence with phase cycling. The 90° pulse length was 3.9 µs, the echo time was 30 µs, and 17 kHz ^1H SPINAL64 decoupling was used. ^1H-^15N cross-polarization experiments using a CP-MOIST pulse sequence were performed using a double-tuned probe with a low-E flat-coil resonator (3 mm × 9 mm cross-section), employing a ^1H and ^15N radiofrequency field strength of 65 kHz during the cross-polarization and 25 kHz ^1H SPINAL16 [41] decoupling during acquisition. A mixing time of 500 μs was used, and 10,000 to 30,000 scans were accumulated. The acquisition time was 10 ms, and the recycle time was 3 s. The ^15N chemical shift was referenced using the ^1H-NMR signal of water in the sample.

Row | Substance | MIC [1] | % Hemolysis (human red blood cells) | % Helix (CD) [2] | MIC (relative antimicrobial activity) ([1]; relative activity over two Gram-positive and two Gram-negative strains) | OCD: orientational state of the helix [3] | NMR: orientational state of the helix [4]
1 | GLFGKLIKKFGRKAISYAVKKARGKH [Ltc2a] | below 4 µg/mL | 100% | – | – | – | –
2 | H-SMWSGMWRRKLKKLRNALKKKLKGE-OH [Ltc1] | below 4 µg/mL | – | 66% | +++ | Surface | Surface
